We go through 29 molecules from patent publication US9487513B2, “Substituted pyrazolo[1,5-A]pyridines, their preparation and use as medicaments” (LABORATORIOS DEL DR. ESTEVE S.A., priority 2012, dated 2016).

Counter-ions that a name gives are not always drawn.

In the assay the target is T1, σ1-receptor (Cavia porcellus, UniProt Q60492).
T1 construct: Guinea pig brains were homogenized in 10 vols; (w/v) of Tris-HCl 50 mM 0.32 M sucrose; from tissue; host or cells: guinea pig brain membranes
T1 sequence (Q60492 whole entry): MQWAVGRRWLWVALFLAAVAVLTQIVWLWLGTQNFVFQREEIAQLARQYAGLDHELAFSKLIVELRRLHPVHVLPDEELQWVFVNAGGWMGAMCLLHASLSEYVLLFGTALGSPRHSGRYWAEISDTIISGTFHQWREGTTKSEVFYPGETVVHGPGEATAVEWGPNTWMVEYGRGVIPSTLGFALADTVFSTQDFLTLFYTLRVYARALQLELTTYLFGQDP
The experiment in a line: σ1-receptor binding assay, [3H]-(+)-pentazocine, guinea pig brain membranes. Conditions: radioligand [3H]-(+)-pentazocine at 5.0 nM; guinea pig brain membrane; 150 min at 37° C.; nonspecific binding with 1 μM haloperidol. As for the experimental part:
Brain membrane preparation and binding assays for the σ1-receptor were performed as described (DeHaven-Hudkins, D. L., L. C. Fleissner, and F. Y. Ford-Rice, 1992, Characterization of the binding of [^3H](+)pentazocine to σ recognition sites in guinea pig brain, Eur. J. Pharmacol. 227, 371-378) with some modifications. Guinea pig brains were homogenized in 10 vols. (w/v) of Tris-HCl 50 mM 0.32 M sucrose, pH 7.4, with a Kinematica Polytron PT 3000 at 15000 r.p.m. for 30 s. The homogenate was centrifuged at 1000 g for 10 min at 4° C. and the supernatants collected and centrifuged again at 48000 g for 15 min at 4° C. The pellet was resuspended in 10 volumes of Tris-HCl buffer (50 mM, pH 7.4), incubated at 37° C. for 30 min, and centrifuged at 48000 g for 20 min at 4° C. Following this, the pellet was re-suspended in fresh Tris-HCl buffer (50 mM, pH 7.4) and stored on ice until use.
The radioligand used was [^3H]-(+)-pentazocine at 5.0 nM and the final volume was 200 μl. The incubation was initiated with the addition of 100 μl of membrane at a final tissue concentration of approximately 5 mg tissue net weight/mL and the incubation time was 150 m. at 37° C. After incubation, the membranes were collected onto pretreated glass fiber filterplate (MultiScreen-FC, Millipore), with polyethylenimine 0.1%. The filters were washed two times with 200 μl of washing buffer (50 mM Tris Cl, pH=7.4) and then 25 μl of Ecoscint H liquid scintillation cocktail were added. Microplates were allowed to set for several hours and then quantified by liquid scintillation spectrophotometry (1450 Microbeta, Wallac). Nonspecific binding was determined with 1 μM haloperidol.
The Ki is a measure of affinity in units of concentration, obtained from inhibition or displacement. Lower therefore signals higher affinity. The molecule `c1c(OCCN2CCCCCC2)nn2c1CCCC2` [Example 53, 2-(2-(azepan-1-yl)ethoxy)-4,5,6,7-tetrahydropyrazolo[1,5-a]pyridine maleate] displayed a Ki of 25.9 nM.
The result for `c1c(OCCCCN2CCOCC2)nn2c1CCCC2` [Example 56, 4-(4-(4,5,6,7-tetrahydropyrazolo[1,5-a]pyridin-2-yloxy)butyl)morpholine oxalate] reads 181 nM; that for `c1c(OCCCCN2CCCC2)nn2c1CCCC2` [Example 59, 2-(4-(pyrrolidin-1-yl)butoxy)-4,5,6,7-tetrahydropyrazolo[1,5-a]pyridine oxalate], 167 nM.
The molecule `c1c(OCCCCN2CCCCC2)nn2c1CCCC2` [Example 60, 2-(4-(piperidin-1-yl)butoxy)-4,5,6,7-tetrahydropyrazolo[1,5-a]pyridine oxalate] gave an inhibitory constant (Ki) of 40.7 nM.
As to `c1c(OCCCCN2CCCCC2)nn2c1CCCC2` [Example 61, 2-(4-(piperidin-1-yl)butoxy)-4,5,6,7-tetrahydropyrazolo[1,5-a]pyridine maleate], the affinity, expressed as Ki, was 28.5 nM.
With `c1ccc(C2CCN(CCCCOc3cc4n(n3)CCCC4)CC2)cc1` [Example 63, 2-(4-(4-phenylpiperidin-1-yl)butoxy)-4,5,6,7-tetrahydropyrazolo[1,5-a]pyridine oxalate] the figure was 9.2 nM; with `CN(CCOc1cc2n(n1)CCCC2)Cc1ccccc1` [Example 64, N-benzyl-N-methyl-2-(4,5,6,7-tetrahydropyrazolo[1,5-a]pyridin-2-yloxy)ethanamine oxalate], 15.4 nM; with `CC(C)(C)C1CCN(CCCCOc2cc3n(n2)CCCC3)CC1` [Example 65, 2-(4-(4-tert-butylpiperidin-1-yl)butoxy)-4,5,6,7-tetrahydropyrazolo[1,5-a]pyridine maleate], 8.3 nM.
The molecule `CC(C)(C)C1CCN(CCOc2cc3n(n2)CCCC3)CC1` [Example 66, 2-(2-(4-tert-butylpiperidin-1-yl)ethoxy)-4,5,6,7-tetrahydropyrazolo[1,5-a]pyridine maleate] came in with a Ki of 5.5 nM.
With `CN(CCCCOc1cc2n(n1)CCCC2)C1CCN(Cc2ccccc2)CC1` [Example 67, 1-benzyl-N-methyl-N-(4-(4,5,6,7-tetrahydropyrazolo[1,5-a]pyridin-2-yloxy)butyl)piperidin-4-amine dimaleate] the figure was 65.7 nM.
The result for `c1c(OCCCCN2CCC3CCCCC3C2)nn2c1CCCC2` (centres unmarked) [Example 68, 2-(4-(4,5,6,7-tetrahydropyrazolo[1,5-a]pyridin-2-yloxy)butyl)decahydroisoquinoline maleate] reads 7.3 nM; that for `c1c(OCCCCN2CCN(C3CCCCC3)CC2)nn2c1CCCC2` [Example 69, 2-(4-(4-cyclohexylpiperazin-1-yl)butoxy)-4,5,6,7-tetrahydropyrazolo[1,5-a]pyridine maleate], 41.6 nM; that for `c1ccc2c(c1)COC21CCN(CCCCOc2cc3n(n2)CCCC3)CC1` [Example 70, 1′-(4-(4,5,6,7-tetrahydropyrazolo[1,5-a]pyridin-2-yloxy)butyl)-3H-spiro[isobenzofuran-1,4′-piperidine]maleate], 21.6 nM.
The result for `c1c(OCCN2CCN(C3CCCCC3)CC2)nn2c1CCCC2` [Example 71, 2-(2-(4-cyclohexylpiperazin-1-yl)ethoxy)-4,5,6,7-tetrahydropyrazolo[1,5-a]pyridine maleate] reads 39.3 nM.
`CN(CCOc1cc2n(n1)CCCC2)C1CCN(Cc2ccccc2)CC1` [Example 72, 1-benzyl-N-methyl-N-(2-(4,5,6,7-tetrahydropyrazolo[1,5-a]pyridin-2-yloxy)ethyl)piperidin-4-amine maleate]: the Ki amounted to 35 nM.
With `c1ccc2c(c1)COC21CCN(CCOc2cc3n(n2)CCCC3)CC1` [Example 74, 1′-(2-(4,5,6,7-tetrahydropyrazolo[1,5-a]pyridin-2-yloxy)ethyl)-3H-spiro[isobenzofuran-1,4′-piperidine]maleate] the figure was 30.6 nM.
The result for `c1c(OCCNC23CC4CC(CC(C4)C2)C3)nn2c1CCCC2` [Example 75, N-adamantyl-2-(4,5,6,7-tetrahydropyrazolo[1,5-a]pyridin-2-yloxy)ethanamine maleate] reads 31.7 nM.
The result for `c1c(OCCCCN2CCCCCC2)nn2c1CCCC2` [Example 78, 2-(4-(azepan-1-yl)butoxy)-4,5,6,7-tetrahydropyrazolo[1,5-a]pyridine maleate] reads 26.1 nM; that for `CCCN(CCCCOc1cc2n(n1)CCCC2)CC1CC1` [Example 80, N-(cyclopropylmethyl)-N-propyl-4-(4,5,6,7-tetrahydropyrazolo[1,5-a]pyridin-2-yloxy)butan-1-amine maleate], 25 nM.
Turning to `c1c(OCCCCN2CC[C@H]3CCCC[C@@H]3C2)nn2c1CCCC2` [Example 81, (4aR,8aS)-2-(4-(4,5,6,7-tetrahydropyrazolo[1,5-a]pyridin-2-yloxy)butyl)decahydroisoquinoline maleate], the affinity corresponds to a Ki of 12.8 nM.
Turning to `CN(CCCCOc1cc2n(n1)CCCC2)Cc1ccccc1` [Example 82, N-benzyl-N-methyl-4-(4,5,6,7-tetrahydropyrazolo[1,5-a]pyridin-2-yloxy)butan-1-amine maleate], the Ki was found to be 8.1 nM.
In turn, `c1c(OCCCCNC23CC4CC(CC(C4)C2)C3)nn2c1CCCC2` [Example 83, N-adamantyl-4-(4,5,6,7-tetrahydropyrazolo[1,5-a]pyridin-2-yloxy)butan-1-amine maleate] had a Ki of 34.8 nM.
With `c1ccc2c(c1)CCN(CCCCOc1cc3n(n1)CCCC3)C2` [Example 84, 2-(4-(4,5,6,7-tetrahydropyrazolo[1,5-a]pyridin-2-yloxy)butyl)-1,2,3,4-tetrahydroisoquinoline maleate] the figure was 15.7 nM; with `c1c(OCCCCNC2CCCCC2)nn2c1CCCC2` [Example 85, N-(4-(4,5,6,7-tetrahydropyrazolo[1,5-a]pyridin-2-yloxy)butyl)cyclohexanamine maleate], 42.5 nM; with `c1c(OCCCCN2CCSCC2)nn2c1CCCC2` [Example 86, 4-(4-(4,5,6,7-tetrahydropyrazolo[1,5-a]pyridin-2-yloxy)butyl)thiomorpholine maleate], 8.4 nM.
Molecule `c1c(OCCN2CC[C@H]3CCCC[C@@H]3C2)nn2c1CCCC2` [Example 87, (4aR,8aS)-2-(2-(4,5,6,7-tetrahydropyrazolo[1,5-a]pyridin-2-yloxy)ethyl)decahydroisoquinoline maleate] came in with a Ki of 3.3 nM.
With `c1c(OCCCCN2CCCOCC2)nn2c1CCCC2` [Example 89, 4-(4-(4,5,6,7-tetrahydropyrazolo[1,5-a]pyridin-2-yloxy)butyl)-1,4-oxazepane maleate] the figure was 10.1 nM; with `CCCN(CCOc1cc2n(n1)CCCC2)CC1CC1` [Example 90, N-(cyclopropylmethyl)-N-(2-(4,5,6,7-tetrahydropyrazolo[1,5-a]pyridin-2-yloxy)ethyl)propan-1-amine maleate], 28.5 nM; with `CC(C)N1CCN(CCOc2cc3n(n2)CCCC3)CC1` [Example 91, 2-(2-(4-isopropylpiperazin-1-yl)ethoxy)-4,5,6,7-tetrahydropyrazolo[1,5-a]pyridine maleate], 195 nM.
